Measurements as given in PubChem BioAssay (NCI).
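Tested at 5 concentrations; 48 h exposure; 96-well plates; endpoints linearly interpolated, else capped at highest concentration. GI50: concentration for 50% inhibition of growth. TGI denotes the concentration required for complete inhibition of growth.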

Columns and labels:
Assay in all cases: DTP human tumour cell line panel, 48 h
[1] = tested on: SN12C renal
[2] = tested on: HS 578T breast
[3] = tested on: SK-MEL-2 melanoma
[4] = tested on: PC-3 prostate
[5] = tested on: SF-268 CNS
[6] = tested on: SNB-19 CNS
[7] = tested on: SR leukemia
[8] = tested on: SW-620 colon
[9] = tested on: MALME-3M melanoma
[10] = tested on: CCRF-CEM leukemia

SMILES | GI50 [1] | TGI [1] | GI50 [2] | TGI [2] | GI50 [3] | TGI [3] | GI50 [4] | TGI [4] | GI50 [5] | TGI [5] | GI50 [6] | TGI [6] | GI50 [7] | TGI [7] | GI50 [8] | TGI [8] | GI50 [9] | TGI [9] | GI50 [10] | TGI [10]
CCOC(=O)c1cc(NS(=O)(=O)c2ccc(C)cc2)cc(C(=O)OCC)c1 | 78.1 µM | > 100 µM | 26.4 µM | 69.9 µM | 28.3 µM | > 100 µM | 47.7 µM | > 100 µM | 40.4 µM | > 100 µM | 76.1 µM | > 100 µM | 34.4 µM | > 100 µM | > 100 µM | > 100 µM | > 100 µM | > 100 µM | 37.2 µM | > 100 µM
COc1ccc(Cn2cc3c(c2-c2cc(OC)c(OC)c(OC)c2)CCc2c(CO)noc2-3)cc1 | 0.765 µM | 19.2 µM | 0.371 µM | 35.8 µM | 0.455 µM | 19.5 µM | 0.309 µM | 41.9 µM | 1.58 µM | 26.5 µM | 0.43 µM | 21.4 µM | 0.194 µM | 23.2 µM | 0.381 µM | > 100 µM | 2.46 µM | 29.3 µM | 0.347 µM | 23.7 µM
CCC1(c2ccc(N)cc2)CCC(=O)NC1=O (centres undefined) |  | > 5000 µM |  | > 5000 µM |  | > 5000 µM |  | 4550 µM |  | > 5000 µM |  | > 5000 µM |  | > 5000 µM |  | > 3970 µM |  | > 4860 µM |  | > 1990 µM
O=C(O)Cc1ccc(N=Nc2c(O)c(C(=O)O)cc3ccccc23)cc1 |  | > 100 µM |  | > 100 µM |  | > 100 µM |  | > 100 µM |  | > 100 µM |  | > 100 µM |  | > 100 µM |  | > 100 µM |  | > 100 µM |  | > 100 µM
O=C1c2c(Cl)c(Cl)c(Cl)c(Cl)c2C(=O)C2(Cl)CC=CCC12Cl (centres undefined) | 1.78 µM | 3.22 µM | 2.04 µM | 5.88 µM | 2.48 µM | 4.89 µM | 1.8 µM | 3.51 µM | 1.76 µM | 3.2 µM | 1.64 µM | 3.01 µM | 1.15 µM | 4.38 µM | 1.49 µM | 3.08 µM | 2.03 µM | 4.16 µM | 1.76 µM | 7.28 µM
O=[N+]([O-])c1ccc2c(c1)C(c1ccccc1Cl)=Nc1c(n[nH]c1-c1cccnc1)N2 | > 25 µM | > 25 µM | > 19.9 µM | > 25 µM | > 25 µM | > 25 µM | > 25 µM | > 25 µM | > 25 µM | > 25 µM | > 25 µM | > 25 µM | > 25 µM | > 25 µM | > 25 µM | > 25 µM | > 25 µM | > 25 µM | > 25 µM | > 25 µM
CN(C)C=Nc1c(I)cc(I)c(CCC(=O)O)c1I | > 100 µM | > 100 µM | > 100 µM | > 100 µM | > 100 µM | > 100 µM | 91.5 µM | > 100 µM | > 100 µM | > 100 µM | > 100 µM | > 100 µM | > 100 µM | > 100 µM | > 100 µM | > 100 µM | > 100 µM | > 100 µM | > 100 µM | > 100 µM
COC(=O)c1oc2c(C(=O)/C=C/c3ccc(OC)cc3)c(OCCN3CCOCC3)ccc2c1C | 1.78 µM | 5.91 µM | 1.74 µM | 5.84 µM | 1.32 µM | 3.15 µM | 1.84 µM | 6.88 µM | 2.05 µM | 5.76 µM | 1.65 µM | 4.15 µM | 0.287 µM | 1.29 µM | 1.88 µM | 4.43 µM | 2.47 µM | 6.54 µM | 0.395 µM | 2.53 µM
CC/C=C\C[C@H](O)C/C=C1/C(=O)C=C[C@@H]1C/C=C\CCCCO | 2.52 µM | 6.53 µM | 9.24 µM | > 100 µM | 5.96 µM | 22.6 µM | 3.32 µM | 9.23 µM | 4.53 µM | 23.9 µM | 7.6 µM | 23.2 µM | 1.97 µM | 16.2 µM | 2.98 µM | 15.2 µM | 2.44 µM | 7.48 µM | 2.43 µM | 16.5 µM
Cc1sc2c(c1C)C(c1ccc(Cl)cc1)=N[C@@H](CC(=O)NCCCN1CCN(C)CC1)c1nnc(C)n1-2 | 7.36 µM | > 100 µM | 0.216 µM | > 22.7 µM | > 44.6 µM | > 100 µM | 1.05 µM | > 100 µM | 30.3 µM | > 100 µM | 0.987 µM | > 100 µM | 0.108 µM | > 100 µM | > 100 µM | > 100 µM | 0.992 µM | > 100 µM | 1.6 µM | > 100 µM
[Cu+2].[NH-]C(CC(=O)O)C(=O)O.[NH-]C(CC(=O)O)C(=O)O (centres undefined) | > 100 µM | > 100 µM | > 100 µM | > 100 µM | > 100 µM | > 100 µM | > 100 µM | > 100 µM | > 100 µM | > 100 µM | 49.5 µM | > 100 µM | > 100 µM | > 100 µM | > 100 µM | > 100 µM | > 100 µM | > 100 µM | 0.929 µM | > 100 µM
NC(N)=Nc1ccc(/C=C2\C=Cc3ccccc32)cc1 | 2.95 µM | 13.2 µM | 5.38 µM | 28.6 µM | 4.83 µM | 11.6 µM | 3.31 µM | 14.8 µM | 3.12 µM | 10.9 µM | 6.32 µM | 32.5 µM | 2.5 µM | 6.85 µM | 1.83 µM | 3.82 µM | 4.41 µM | 16.5 µM | 2.09 µM | 4.9 µM
CC(=O)N[C@@H](Cc1ccc(OP(=O)(O)O)cc1)C(=O)N[C@H]1CCC(=O)N2CCC[C@@H](C(=O)NCc3ccccc3)N2C1=O | > 25 µM | > 25 µM | > 25 µM | > 25 µM | > 25 µM | > 25 µM | > 25 µM | > 25 µM | > 25 µM | > 25 µM | > 25 µM | > 25 µM | > 25 µM | > 25 µM | > 25 µM | > 25 µM | > 25 µM | > 25 µM | > 25 µM | > 25 µM
Cc1ccsc1-c1ccc2c(c1)COC2(CCCN(C)C)c1ccc(F)cc1 (centres undefined) | 3.59 µM | 15.5 µM | 2.39 µM | 9.07 µM | 2.78 µM | 7.48 µM | 3.28 µM | 13.2 µM | 4.28 µM | 17.1 µM | 2.77 µM | 10.3 µM | 2.29 µM | 7.3 µM | 1.78 µM | 3.75 µM | 1.39 µM | 2.8 µM | 2.73 µM | 8.56 µM
CC(C)C(=O)c1c(C(F)(F)F)n([O-])c2ccccc2[n+]1=O | 1.77 µM | 3.97 µM | 5.4 µM | 18.1 µM | 2.01 µM | 5.58 µM | 0.688 µM | 3.03 µM | 1.03 µM | 4.66 µM | 3.51 µM | 25.8 µM | < 0.0197 µM |  | 4.34 µM | 17.5 µM | 0.654 µM | 2.03 µM | 1.57 µM | 9.83 µM
Cc1ccccc1C(C(=O)NC1CCCCC1)N(C(=O)CNc1ncccc1F)c1cccc(F)c1 (centres undefined) | > 79.9 µM | > 100 µM | 27.2 µM | > 100 µM | 28.9 µM | > 90.3 µM | > 100 µM | > 100 µM | 48.7 µM | > 100 µM | 17.2 µM | > 87.3 µM | > 100 µM | > 100 µM | > 100 µM | > 100 µM | > 100 µM | > 100 µM | > 100 µM | > 100 µM
O=C1CC(N2C(=O)/C(=C/C(Cl)=C\c3ccc([N+](=O)[O-])cc3)SC2=S)C(=O)N1c1ccc(O)cc1 (centres undefined) | 1.6 µM | 5.88 µM | 2.8 µM | 12.6 µM | 2.74 µM | 7.83 µM | 0.906 µM | 2.87 µM | 2.43 µM | 6.99 µM | 1.34 µM | 3.47 µM | 0.394 µM | 4.97 µM | 0.684 µM | 2.28 µM | 2.31 µM | 5.79 µM | 0.385 µM | 3.87 µM
CC(C)Cc1ccc(C(C)C(=O)NCc2ccc(Cn3c(=O)sn(CCCI)c3=O)cc2)cc1 (centres undefined) | 0.646 µM | 1.97 µM | 0.653 µM | 1.83 µM | 1.34 µM | 2.88 µM | 0.732 µM | 2.07 µM | 1.46 µM | 2.95 µM | 1.45 µM | 2.78 µM | 0.364 µM | > 100 µM | 0.259 µM | 0.75 µM | 1.41 µM | 2.8 µM | 0.279 µM | > 100 µM
CN(C)Cc1c(C(=O)NCCOc2ccc(C(=O)NO)cc2)oc2ccccc12 | 0.459 µM | > 100 µM | 0.158 µM | 0.851 µM | 0.243 µM | 1.54 µM | 0.214 µM | 5.06 µM | 0.464 µM | 6.02 µM | 0.453 µM | 13.9 µM | 0.203 µM | 12.4 µM | 0.166 µM | 0.547 µM | 0.0709 µM | 36.2 µM | 0.135 µM | 25.8 µM
COc1cc(CCNC(=O)OC(C)(C)C)c2c(c1OC)SSSSS2 | 3.74 µM | 15.8 µM | 3.79 µM | 32.6 µM | 2.45 µM | 5.68 µM | 3.72 µM | 13.6 µM | 1.87 µM | 4.04 µM | 2.7 µM | 5.63 µM | 4.48 µM | 32.8 µM | 2.8 µM | 7.69 µM | 2.48 µM | 4.94 µM | 5.34 µM | 65.2 µM
